In ChEMBL document CHEMBL1129792, “Synthesis and structure-activity relationships of 1,2,3,4-tetrahydroquinoline-2,3,4-trione 3-oximes: novel and highly potent antagonists for NMDA receptor glycine site” (J Med Chem, 1996):
pIC50: −log10 of the molar value.

What was measured:
[1] = biological target: Glutamate receptor ionotropic, AMPA (Rattus norvegicus) (UniProt P19491+P19492+P19493+P19490); assay: Inhibition of Ionotropic glutamate receptor AMPA in xenopus oocytes expressing the rat cerebral cortex poly(A+) RNA; type: cell-based; details: Oocyte
[2] = Steady state Selectivity index for inhibition at NMDA receptor glycine site was estimated by dividing Kb (AMPA) by Kb (NMDA)
[3] = Functional antagonism of NR1a/2C N-methyl-D-aspartate glutamate receptor of rat membrane expressed in Xenopus oocytes; details: Oocyte
[4] = biological target: Glutamate receptor ionotropic, NMDA 1 (Rattus norvegicus, UniProt P35439); assay: Inhibition of [3H]- DCKA binding to NMDA receptor of rat brain membranes; type: cell membranes, Membrane

## O=Nc1c(O)nc2cc(Cl)cc(Cl)c2c1O
[1]
  Kb: 600 nM
[2]
  Selectivity: 13
[3]
  Kb: 47 nM

## Oc1nc2cc(Cl)c(Cl)c(Cl)c2nc1O
[4]
  pIC50: 7.52
[3]
  Kb: 82 nM

## O=Nc1c(O)nc2c(Cl)cccc2c1O
[4]
  pIC50: < 4.00

## O=Nc1c(O)nc2ccc(Cl)c(Cl)c2c1O
[4]
  pIC50: 6.77

## O=Nc1c(O)nc2cc(Cl)ccc2c1O
[4]
  pIC50: 7.28
[1]
  Kb: 740 nM
[2]
  Selectivity: 8.6
[3]
  Kb: 86 nM

## O=Nc1c(O)c2cc(F)c(Cl)c(F)c2[nH]c1=O
[4]
  pIC50: 6.04

## O=Nc1c(O)c2c(F)c(F)c(F)c(F)c2[nH]c1=O
[4]
  pIC50: 5.48

## O=Nc1c(O)nc2cccc(Cl)c2c1O
[4]
  pIC50: 5.36

## Oc1nc2cc(Cl)cc(Cl)c2nc1O
[4]
  pIC50: 6.55
[3]
  Kb: 730 nM

## Cc1cc(C)c2c(O)c(N=O)c(=O)[nH]c2c1
[4]
  pIC50: 7.43

## O=c1[nH]c2c(F)c(F)c(F)c(F)c2[nH]c1=O
[4]
  pIC50: 6.14

## O=Nc1c(O)c2cc(Cl)ccc2[nH]c1=O
[4]
  pIC50: 5.47

## Cc1cc(C)c2nc(O)c(O)nc2c1
[4]
  pIC50: 5.68

## O=Nc1c(O)nc2cc(Cl)c(Cl)c(Cl)c2c1O
[4]
  pIC50: 8.15
[1]
  Kb: 180 nM
[3]
  Kb: 22 nM

## O=Nc1c(O)nc2cc(Cl)c(Cl)cc2c1O
[4]
  pIC50: 7.92
[1]
  Kb: 410 nM
[2]
  Selectivity: 17
[3]
  Kb: 24 nM

## Oc1nc2cc(Cl)c(Cl)cc2nc1O [2,3-DIHYDROXY-6,7-DICHLOROQUINOXALINE]
[4]
  pIC50: 6.89
[3]
  Kb: 380 nM

## O=Nc1c(O)nc2ccccc2c1O
[4]
  pIC50: 5.85

## Oc1nc2ccc(Cl)cc2nc1O
[4]
  pIC50: 5.74
[3]
  Kb: 2600 nM

## O=Nc1c(O)c2c(Cl)cc(Cl)cc2[nH]c1=O
[4]
  pIC50: 7.48

## Cc1cc(C)c2c(O)c(N=O)c(O)nc2c1
[1]
  Kb: 2600 nM
[2]
  Selectivity: 15
[3]
  Kb: 170 nM

## Oc1nc2cc(F)c(Cl)c(F)c2nc1O
[4]
  pIC50: 6.20

## Oc1nc2ccccc2nc1O
[4]
  pIC50: 5.01
